From patent publication US5308836A, “Pharmaceutical composition of stabilized [Leu^13 ]-motilin-Hse” (Sanwa Kagaku Kenkyusho Co., Ltd., priority 1991, dated 1994)
Like-named read-outs stand apart in the source and are kept apart here.

Tests used:
[1] = type: physicochemical; details: for Amount of formed [Leu^13 ]-motilin-Hse-lactone: aqueous solution 20 μg/ml
Method: An aqueous solution containing 20 μg/ml of [Leu^13 ]-motilin-Hse was aseptically prepared by dissolving 1 mg of [Leu^13 ]-motilin-Hse in a refined water and adding 0.1N-sodium hydroxide and 0.1N-hydrochloric acid to adjust pH of the solution to 6.0 or 7.0.
Each of the solutions different in pH value was aseptically charged in a glass vial to seal the same. Each vial was stored in a constant temperature bath kept at 60° C. for 30 days and then a remaining amount of [Leu^13 ]-motilin-Hse was measured with HPLC method. […]
An aqueous solution containing 20 μg of [Leu^13 ]-motilin-Hse and 30 mg/ml of tartaric acid was aseptically prepared by dissolving 1 mg of [Leu^13 ]-motilin-Hse and tartaric acid in a refined water and adding 0.1N-sodium hydroxide and 0.1N-hydrochloric acid to adjust pH of the solution to 6.0 or 7.0.
(§1) Aqueous solutions, each containing 20 μg/ml of [Leu^13 ]-motilin were aseptically prepared by dissolving 1 mg of [Leu^13 ]-motilin in a refined water and adding 0.1N-sodium hydroxide and 0.1N-hydrochloric acid to adjust pH of each solution in various values.
(§2) Each of the solutions different in pH value was aseptically charged in a glass vial to seal the same. Each vial was stored in a constant temperature bath kept at 60° C. for 30 days and then a remaining amount of [Leu^13 ]-motilin was measured with HPLC method to check the relation with the pH value of the solution.
(§3) Aqueous solutions, each containing 20 μg/ml of [Leu^13 ]-motilin-Hsewere aseptically prepared by dissolving 1 mg of [Leu^13 ]-motilin-Hse in a refined water and adding 0.1 N-sodium hydroxide and 0.1 N-hydrochloric acid to adjust pH of each solution in various values.
as §2, with “]-motilin-Hse and amount of [Leu^13 ]-motilin-Hse-lactone formed by modification of Hse residue at 23-position of the former were” for “]-motilin was”
as §3, with “]-motilin-Hseand 30 mg/ml of tartaric acid were” for “]-motilin-Hsewere”, “]-motilin-Hse and tartaric acid” for “]-motilin-Hse”
as §3, with “]-motilin-Hseand 27.2 mg/ml of potassium dihydrogenphosphate were” for “]-motilin-Hsewere”, “]-motilin-Hse and potassium dihydrogenphosphate” for “]-motilin-Hse”, “N sodium” for “N-sodium”

[2] = type: physicochemical; details: lyophilized powder, no additive
Method: as §1
as §2, with “lyophilize” for “seal”
Aqueous solutions, each containing 20 μg/ml of [Leu^13 ]-motilin-Hsewere aseptically prepared by dissolving 1 mg of [Leu^13 ]-motilin-Hse in a refined water and adding 0.1N-sodium hydroxide and 0.1N-hydrochloric acid to adjust pH of each solution in various values.
as §2, with “lyophilize” for “seal”, “]-motilin-Hse and amount of [Leu^13 ]-motilin-Hse-lactone formed by modification of Hse residue at 23-position of the former were” for “]-motilin was”, “solution. […]” for “solution.”

[3] = compared with native type motilin and [Leu^13 ]-motilin; cited from earlier work

With [Leu^13 ]-motilin-Hse the “pH range of relatively stable state” value ([1]; [Leu^13 ]-motilin-Hse aqueous solution, no additive, 60° C. 30 days) was 4.0-6.0, the “Amount of formed [Leu^13 ]-motilin-Hse-lactone” value (“Amount of formed” for short) ([1]; 27.2 mg/ml potassium dihydrogenphosphate, pH 3.0, 60° C. 30 days) was 31.1% and the “Amount of formed” value ([1]; 27.2 mg/ml potassium dihydrogenphosphate, pH 4.0, 60° C. 30 days) was 17.5%. The “Amount of formed” value ([1]; 27.2 mg/ml potassium dihydrogenphosphate, pH 4.5, 60° C. 30 days) was 9.3%, the “Amount of formed” value ([1]; 27.2 mg/ml potassium dihydrogenphosphate, pH 5.0, 60° C. 30 days) was 5.7% and the “Amount of formed” value ([1]; 27.2 mg/ml potassium dihydrogenphosphate, pH 5.5, 60° C. 30 days) was 2.1%. For the same substance, the “Amount of formed” value ([1]; 27.2 mg/ml potassium dihydrogenphosphate, pH 6.0, 60° C. 30 days) was 0%, the “Amount of formed” value ([1]; 27.2 mg/ml potassium dihydrogenphosphate, pH 6.5, 60° C. 30 days) was 0% and the “Amount of formed” value ([1]; 27.2 mg/ml potassium dihydrogenphosphate, pH 7.0, 60° C. 30 days) was 0%. For the same substance, the “Amount of formed” value ([1]; 27.2 mg/ml potassium dihydrogenphosphate, pH 8.0, 60° C. 30 days) was 0%, the “Amount of formed” value ([1]; 27.2 mg/ml potassium dihydrogenphosphate, pH 9.0, 60° C. 30 days) was 0% and the “Amount of formed” value ([1]; 30 mg/ml tartaric acid, pH 3.0, 60° C. 30 days) was 29.7%. The “Amount of formed” value ([1]; 30 mg/ml tartaric acid, pH 4.0, 60° C. 30 days) was 16.8%, the “Amount of formed” value ([1]; 30 mg/ml tartaric acid, pH 4.5, 60° C. 30 days) was 6.4% and the “Amount of formed” value ([1]; 30 mg/ml tartaric acid, pH 5.0, 60° C. 30 days) was 2.7%. For the same substance, the “Amount of formed” value ([1]; 30 mg/ml tartaric acid, pH 5.5, 60° C. 30 days) was 1.5%, the “Amount of formed” value ([1]; 30 mg/ml tartaric acid, pH 6.0, 60° C. 30 days) was 0% and the “Amount of formed” value ([1]; 30 mg/ml tartaric acid, pH 6.5, 60° C. 30 days) was 0%. The “Amount of formed” value ([1]; 30 mg/ml tartaric acid, pH 7.0, 60° C. 30 days) was 0%, the “Amount of formed” value ([1]; 30 mg/ml tartaric acid, pH 8.0, 60° C. 30 days) was 0% and the “Amount of formed” value ([1]; 30 mg/ml tartaric acid, pH 9.0, 60° C. 30 days) was 0%. The “Amount of formed” value ([1]; no additive, pH 3.0, 60° C. 30 days) was 30.2%, the “Amount of formed” value ([1]; no additive, pH 4.0, 60° C. 30 days) was 18.7% and the “Amount of formed” value ([1]; no additive, pH 4.5, 60° C. 30 days) was 8.7%. For the same substance, the “Amount of formed” value ([1]; no additive, pH 5.0, 60° C. 30 days) was 5.5%, the “Amount of formed” value ([1]; no additive, pH 5.5, 60° C. 30 days) was 1.9% and the “Amount of formed” value ([1]; no additive, pH 6.0, 60° C. 30 days) was 0%. For the same substance, the “Amount of formed” value ([1]; no additive, pH 6.5, 60° C. 30 days) was 0%, the “Amount of formed” value ([1]; no additive, pH 7.0, 60° C. 30 days) was 0% and the “Amount of formed” value ([1]; no additive, pH 8.0, 60° C. 30 days) was 0%. For the same substance, the “Amount of formed” value ([1]; no additive, pH 9.0, 60° C. 30 days) was 0%, the “Amount of formed” value ([2]; solution pH 3.0, 60° C. 30 days) was 25.1% and the “Amount of formed” value ([2]; solution pH 4.0, 60° C. 30 days) was 16.9%. The “Amount of formed” value ([2]; solution pH 4.5, 60° C. 30 days) was 7.3%, the “Amount of formed” value ([2]; solution pH 5.0, 60° C. 30 days) was 3.9% and the “Amount of formed” value ([2]; solution pH 5.5, 60° C. 30 days) was 1.8%. For the same substance, the “Amount of formed” value ([2]; solution pH 6.0, 60° C. 30 days) was 0%, the “Amount of formed” value ([2]; solution pH 6.5, 60° C. 30 days) was 0% and the “Amount of formed” value ([2]; solution pH 7.0, 60° C. 30 days) was 0%. For the same substance, the “Amount of formed” value ([2]; solution pH 8.0, 60° C. 30 days) was 0%, the “Amount of formed” value ([2]; solution pH 9.0, 60° C. 30 days) was 0% and the biological activities [3] was “higher biological activities”.
